Results taken from patent US7332292B2, “Constitutively translocating cell line” (priority 2002, dated 2008).

System: angiotensin II type 1A receptor (AT1AR)
Assay: GRK2-C20 induced ligand-independent arrestinGFP translocation to the AT1AR in U2OS cells (INCell Analyzer)
Assay type: cell-based
Description: U2OS cells stably expressing arrestinGFP and the angiotensin II type 1A receptor (AT1 AR) were transiently transduced with human GRK2-C20 using a baculovirus expression system. A range of GRK2-C20 expression levels was obtained by using varying amounts (serial dilution) of the GRK2-C20 baculovirus.
To test whether the ligand-independent arrestinGFP translocation could be blocked by an antagonist/inverse agonist of the AT1AR, the cells were treated with losartan. Losartan is a nonpeptide molecule that functions as an antagonist/inverse agonist of the AT1AR. Losartan (1 μM final concentration) was added to the cells either immediately after transduction for an 18 hour incubation or 15 hours after transduction for a 3 hour incubation. At the end of the incubation, the cells were analyzed for arrestinGFP translocation using the INCell Analyzer system.

With `CCCCc1nc(Cl)c(CO)n1Cc1ccc(-c2ccccc2-c2nnn[nH]2)cc1` [losartan, Losartan] the “effect on ligand-independent translocation of arrestinGFP to the AT1AR induced by expression of GRK2-C20” value (losartan 1 μM final concentration, 3 hour or 18 hour incubation, U2OS cells stably expressing arrestinGFP and AT1AR) was “blocks the ligand-independent translocation of arrestinGFP to the AT1AR” and the “inhibition of the ligand-independent translocation of arrestinGFP to the AT1AR” value (losartan 1 μM, 18 hour incubation, lower levels of GRK2-C20 expression (1:64, 1:128, and 1:256 dilutions of baculovirus)) was “greater than 90%”.
